IC50 data for 24 compounds are collected here from patent US9090593B2, “Bicyclic compounds as Pim inhibitors” (AMGEN INC., priority 2010, dated 2015).

Assay [1] addresses T1, full length recombinant Pim-1 protein (Homo sapiens, UniProt P11309).
T1 construct: by full length recombinant Pim-1, Pim-2, or Pim-3 protein; hexahistidine tag followed by a thrombin cleavage site (N); made in house; host or cells: Sf9 (baculovirus) or E. coli (pET28)
Description: Pim-1 enzyme assay (HTRF, phosphorylation of biotinylated-BAD (S112) peptide). As to conditions: read-out: Pim_1_IC50. The assay is classed as biochemical. The gist of the method: (§1)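 Full-length His-tagged Pim-1 or Pim-2 (Sf9 or E. coli expressed, purified) phosphorylated biotinylated BAD (S112) peptide in 60 mM Hepes pH 7.0, 0.05% BSA, 2 mM DTT. Reaction stopped with 3 mM EDTA; phospho-BAD read by HTRF with Eu anti-phospho-BAD antibody and streptavidin-APC. IC50 from percent of control by 4-parameter logistic fit.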
A general note: Time-resolved FRET reads energy transfer from a long-lived donor to a nearby acceptor.

Assay [2] concerns the target T2, full length recombinant Pim-2 protein (Homo sapiens, UniProt Q9P1W9).
T2 construct: by full length recombinant Pim-1, Pim-2, or Pim-3 protein; hexahistidine tag followed by a thrombin cleavage site (N); made in house; host or cells: Sf9 (baculovirus) or E. coli (pET28)
Description: Pim-2 enzyme assay (HTRF, phosphorylation of biotinylated-BAD (S112) peptide). It counts as biochemical. To be noted: read-out: Pim2_IC50. The gist of the method:
as §1

A further assay deals with KMS-Cell. Description: KMS cell IC50 (Table 4). It counts as cell-based. To be noted: KMS cells.
The target of assay [3] is T3, Pim-1 stably transfected into the U2OS human osteogenic sarcoma line (Homo sapiens, UniProt P11309).
T3 construct: expressed in transfected cells; host or cells: U2OS human osteogenic sarcoma line
T3 sequence (P11309 whole entry): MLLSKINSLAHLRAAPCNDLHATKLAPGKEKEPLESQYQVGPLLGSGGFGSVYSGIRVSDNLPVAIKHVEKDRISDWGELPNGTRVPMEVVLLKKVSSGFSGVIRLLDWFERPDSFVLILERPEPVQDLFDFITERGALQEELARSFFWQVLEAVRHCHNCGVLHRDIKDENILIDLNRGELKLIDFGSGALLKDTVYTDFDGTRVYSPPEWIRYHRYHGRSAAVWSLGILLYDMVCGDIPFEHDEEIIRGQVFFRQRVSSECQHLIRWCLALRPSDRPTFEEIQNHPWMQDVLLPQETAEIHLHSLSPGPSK
Description: Pim cell assay, phospho-BAD normalized against total BAD, U2OS stably transfected with Pim-1. It counts as cell-based. To be noted: read-out: Pim1_Cell_IC50. The gist of the method:
(§2)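 U2OS cells stably expressing Pim-1 or Pim-2 were plated overnight at 37 °C, then dosed over a 10-point curve (final 0.3% DMSO; DMSO alone as high control). Lysates assayed for phospho- and total BAD by Meso Scale immunoassay; % phosphoprotein = (2×phospho)/(phospho+total)×100.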

Assay [4] addresses T4, Pim-2 stably transfected into the U2OS human osteogenic sarcoma line (Homo sapiens, UniProt Q9P1W9).
T4 construct: expressed in transfected cells; host or cells: U2OS human osteogenic sarcoma line
Description: Pim cell assay, phospho-BAD normalized against total BAD, U2OS stably transfected with Pim-2. Also: high dose 31.6 µM. To be noted: read-out: Pim2_Cell_IC50. It counts as cell-based. The gist of the method:
as §2

Assay [5] has as its target T5, full length recombinant Pim-3 protein (Homo sapiens, UniProt Q86V86).
T5 construct: by full length recombinant Pim-1, Pim-2, or Pim-3 protein; purchased Millipore (UK)
Description: Pim-3 enzyme assay (HTRF, phosphorylation of biotinylated-BAD (S112) peptide). The assay is classed as biochemical. As to conditions: read-out: Pim3 IC50. The gist of the method: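 Full-length recombinant Pim-3 phosphorylates biotinylated BAD (S112) peptide in 60 mM Hepes pH 7.0, 0.05% BSA, 2 mM DTT; reaction stopped with 3 mM EDTA. Phospho-BAD detected by HTRF (Eu anti-phospho-BAD S112 antibody, streptavidin-APC). IC50 from percent-of-control values fitted to a 4-parameter logistic model.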

[6] abbreviates: U2OS cells stably transfected with Pim-1, phospho-BAD, high dose […].
[7] abbreviates: U2OS cells stably transfected with Pim-2, phospho-BAD, high dose […].

Counter-ions that a name gives are not always drawn. Like-named read-outs stand apart in the source and are kept apart here.

T2 sequence (Q9P1W9 whole entry): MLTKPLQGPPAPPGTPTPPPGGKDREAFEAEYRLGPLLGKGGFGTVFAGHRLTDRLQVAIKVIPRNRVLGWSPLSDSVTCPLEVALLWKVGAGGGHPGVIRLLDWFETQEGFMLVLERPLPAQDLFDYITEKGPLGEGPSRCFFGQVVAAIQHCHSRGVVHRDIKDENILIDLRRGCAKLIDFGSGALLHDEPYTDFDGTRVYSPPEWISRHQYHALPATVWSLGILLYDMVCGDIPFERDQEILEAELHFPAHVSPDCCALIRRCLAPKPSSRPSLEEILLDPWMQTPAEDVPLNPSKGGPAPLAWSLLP
T4 sequence (Q9P1W9 whole entry): as above
T1 sequence (P11309 whole entry): as the sequence (P11309 whole entry) above

In the case of `CC(O)c1cccc(-c2ccc3[nH]cc(-c4cncc(O[C@@H]5CCCNC5)n4)c3c2)c1` (mixture of isomers) [Example 359], the IC50 in assay [1] amounted to 9 nM; in assay [2], 21 nM; with KMS-Cell, 4840 nM.
Regarding `O[C@@H]1CN(c2cncc(-c3n[nH]c4ccc(-c5c(F)cccc5F)cc34)n2)CC[C@@H]1O` (racemic) [Example 248, cis-1-(6-(5-(2,6-difluorophenyl)-1H-indazol-3-yl)-2-pyrazinyl)-3,4-piperidinediol], the IC50 is 17 nM in assay [1], 43 nM in assay [2] and more than 31600 nM in the assay with KMS-Cell.
With `Fc1cccc(F)c1-c1ccc2[nH]nc(-c3cncc(CC4CCCNC4)n3)c2c1` (racemic) [Example 272, 5-(2,6-difluorophenyl)-3-(6-(3-piperidinylmethyl)-2-pyrazinyl)-1H-indazole ditrifluoroacetate], the IC50 was 13 nM in assay [1], 54 nM in assay [2] and 13000 nM in the assay with KMS-Cell.
For `O=c1cc(-c2n[nH]c3ccc(-c4ccc(Cl)cc4F)cc23)nc(O[C@@H]2CNCC[C@H]2F)[nH]1` (racemic) [Example 283, 6-(5-(4-chloro-2-fluorophenyl)-1H-indazol-3-yl)-2-((trans-4-fluoropiperidin-3-yl)oxy)pyrimidin-4(3H)-one trifluoroacetate] the same measures were 2 nM, 1 nM and 1890 nM.
As to `O=c1cc(-c2n[nH]c3ccc(-c4nccs4)cc23)nc(O[C@@H]2CNCC[C@H]2F)[nH]1` (racemic) [Example 289, 2-((trans-4-fluoropiperidin-3-yl)oxy)-6-(5-(thiazol-2-yl)-1H-indazol-3-yl)pyrimidin-4(3H)-one trifluoroacetate], the IC50 in assay [2] is 1 nM; in the assay with KMS-Cell it was 3540 nM.
Regarding `CC(c1ccc2[nH]nc(-c3cncc(O[C@H]4CNCCC45CC5)n3)c2c1)C(F)(F)F` (single isomer, unassigned) [Example 259], the IC50 in assay [1] was 13 nM; in assay [2], 6 nM; in the assay on KMS-Cell, 2800 nM.
`CC(c1ccc2[nH]nc(-c3cncc(O[C@H]4CNCCC45CC5)n3)c2c1)C(F)(F)F` (single isomer, unassigned) [Example 260]: the IC50 in assay [1] came out at 9 nM; in assay [2], 5 nM; with KMS-Cell, 2190 nM.
For `Fc1cccc(F)c1-c1ccc2[nH]cc(-c3cncc(NC4CCNCC4)n3)c2c1` [Example 205, 6-(5-(2,6-difluorophenyl)-1H-indol-3-yl)-N-4-piperidinyl-2-pyrazinamine], the IC50 in assay [1] (enzyme assay, Pim-1) stood at 4 nM; in assay [3] (setting [6]), 273 nM; in assay [4] (setting [7]) it was 4330 nM; in assay [2] (enzyme assay, Pim-2), 29 nM; in assay [5], 4 nM.
With `Fc1cccc(F)c1-c1ccc2[nH]cc(-c3cncc(OC4CCNCC4)n3)c2c1` [Example 206, 5-(2,6-difluorophenyl)-3-(6-(4-piperidinyloxy)-2-pyrazinyl)-1H-indole], the IC50 in assay [1] (enzyme assay, Pim-1) was found to be 2 nM; in assay [3] (setting [6]), 326 nM; in assay [4] (setting [7]) it was 20400 nM; in assay [2] (enzyme assay, Pim-2) it was 54 nM; in assay [5] it was 6 nM.
On the same counts, the results for `Fc1cccc(F)c1-c1ccc2[nH]cc(-c3cncc(N[C@@H]4CCCNC4)n3)c2c1` [Example 207, 6-(5-(2,6-difluorophenyl)-1H-indol-3-yl)-N-((3R)-3-piperidinyl)-2-pyrazinamine] are 1 nM, 102 nM, 3030 nM, 11 nM and 4 nM.
For `Fc1cccc(F)c1-c1ccc2[nH]cc(-c3cncc(N[C@@H]4CCNC4)n3)c2c1` [Example 208, 6-(5-(2,6-difluorophenyl)-1H-indol-3-yl)-N-((3R)-3-pyrrolidinyl)-2-pyrazinamine], the IC50 in assay [1] (enzyme assay, Pim-1) came to 2 nM; in assay [3] (setting [6]), 381 nM; in assay [4] (setting [7]), 4620 nM; in assay [2] (enzyme assay, Pim-2) it was 15 nM; in assay [5], 4 nM.
For `Fc1cccc(F)c1-c1ccc2[nH]cc(-c3nccc(O[C@@H]4CCCNC4)n3)c2c1` [Example 209, 5-(2,6-difluorophenyl)-3-(4-((3R)-3-piperidinyloxy)-2-pyrimidinyl)-1H-indole], the IC50 in assay [1] (enzyme assay, Pim-1) was 36 nM; in assay [3] it was 1180 nM; in assay [4], 30300 nM; in assay [2] (enzyme assay, Pim-2), 89 nM; in assay [5] it was 49 nM.
For `Fc1cccc(F)c1-c1ccc2[nH]cc(-c3nccc(OC4CCNCC4)n3)c2c1` [Example 211, 5-(2,6-difluorophenyl)-3-(4-(4-piperidinyloxy)-2-pyrimidinyl)-1H-indole] the same measures were 86 nM, 3790 nM, more than 31600 nM, 445 nM and 61 nM.
Take `N[C@@H]1CCN(c2cncc(-c3c[nH]c4ccc(-c5c(F)cccc5F)cc34)n2)C1` [Example 212, (3R)-1-(6-(5-(2,6-difluorophenyl)-1H-indol-3-yl)-2-pyrazinyl)-3-pyrrolidinamine]: the IC50 was 15 nM in assay [1] (enzyme assay, Pim-1); 997 nM in assay [3] (setting [6]); more than 31600 nM in assay [4] (setting [7]); 185 nM in assay [2] (enzyme assay, Pim-2); 18 nM in assay [5].
`CC(C)Oc1cncc(-c2ccc3[nH]cc(-c4cncc(O[C@@H]5CCCNC5)n4)c3c2)n1` [Example 213, 5-(6-(1-methylethoxy)-2-pyrazinyl)-3-(6-((3R)-3-piperidinyloxy)-2-pyrazinyl)-1H-indole]: the IC50 in assay [1] (enzyme assay, Pim-1) was determined as 22 nM; in assay [3], 1370 nM; in assay [4] it was 18900 nM; in assay [2] (enzyme assay, Pim-2) it was 343 nM; in assay [5] it was 40 nM.
On to `CC(C)Oc1cncc(-c2ccc3[nH]cc(-c4ccc5cn[nH]c5c4)c3c2)n1` [Example 221, 6-(5-(6-(1-methylethoxy)-2-pyrazinyl)-1H-indol-3-yl)-1H-indazole], for which the IC50 in assay [1] (enzyme assay, Pim-1) was 50 nM; in assay [3], 1920 nM; in assay [4], more than 31600 nM; in assay [2] (enzyme assay, Pim-2), 506 nM; in assay [5] it was 33 nM.
As to `CC(C)Oc1cncc(-c2ccc3[nH]cc(-c4cncc(N5CCOCC5)n4)c3c2)n1` [Example 225, 5-(6-(1-methylethoxy)-2-pyrazinyl)-3-(6-(4-morpholinyl)-2-pyrazinyl)-1H-indole], the IC50 in assay [1] (enzyme assay, Pim-1) is 77 nM; in assay [3], 1470 nM; in assay [4], more than 31600 nM; in assay [2] (enzyme assay, Pim-2), more than 3000 nM; in assay [5], 138 nM.
Regarding `CC(C)Oc1cncc(-c2ccc3[nH]cc(-c4csc(-n5ccccc5=O)n4)c3c2)n1` [Example 227, 1-(4-(5-(6-(1-methylethoxy)-2-pyrazinyl)-1H-indol-3-yl)-1,3-thiazol-2-yl)-2(1H)-pyridinone], the IC50 in assay [1] (enzyme assay, Pim-1) was 100 nM; in assay [3], more than 15800 nM; in assay [4], more than 15800 nM; in assay [2] (enzyme assay, Pim-2) it was more than 3000 nM; in assay [5], 206 nM.
With `CC(C)Oc1cncc(-c2ccc3[nH]cc(-c4csc(-n5ccnc5)n4)c3c2)n1` [Example 228, 3-(2-(1H-imidazol-1-yl)-1,3-thiazol-4-yl)-5-(6-(1-methylethoxy)-2-pyrazinyl)-1H-indole], the IC50 is 43 nM in assay [1] (enzyme assay, Pim-1); 3420 nM in assay [3]; more than 31600 nM in assay [4]; 1410 nM in assay [2] (enzyme assay, Pim-2); 42 nM in assay [5].
Take `CC(C)Oc1cncc(-c2ccc3[nH]cc(-c4cncc(N(C)C)n4)c3c2)n1` [Example 230, N,N-dimethyl-6-(5-(6-(1-methylethoxy)-2-pyrazinyl)-1H-indol-3-yl)-2-pyrazinamine]: the IC50 in assay [1] (enzyme assay, Pim-1) is 89 nM; in assay [3], 2830 nM; in assay [4], more than 31600 nM; in assay [2] (enzyme assay, Pim-2) it was 2360 nM; in assay [5] it was 50 nM.
On to `CC(=O)Nc1ccc(-c2ccc3[nH]nc(-c4cncc(O[C@H]5CNCCC56CC6)n4)c3c2)c(F)c1` [Example 462], for which the results for the IC50 (in assay [2]; with KMS-Cell) were 1 nM and 560 nM, respectively.
As to `Nc1ccc(-c2ccc3[nH]nc(-c4cncc(O[C@H]5CNCCC56CC6)n4)c3c2)c(F)n1` [Example 466], the IC50 in assay [2] is 1 nM; in the assay with KMS-Cell, 346 nM.
As for `O=c1cc(-c2n[nH]c3cc(F)c(-c4c(F)cccc4F)cc23)nc(O[C@H]2CNCC[C@@H]2F)[nH]1` [Example 544], the results for the IC50 (in assay [2]; in the assay with KMS-Cell) were 1 nM and 633 nM, respectively.
For the compound `O=c1cc(-c2n[nH]c3ccc(-c4c(F)cccc4F)cc23)nc(OC2CNCCC2F)[nH]1` (centres unmarked) [Example 555], the IC50 in the assay with KMS-Cell is 307 nM.
